Measured values from patent US7902187B2, “6-substituted 2-(benzimidazolyl)purine and purinone derivatives for immunosuppression” (Wyeth LLC, priority 2006, dated 2011).

Target: T1, Jak3 (Homo sapiens, UniProt P52333)
T1 construct: A fragment encoding the catalytic domain of Jak3 (508aa to 1124aa) was ligated with GST at 5′ end; made in house; host or cells: Sf9 insect cells (baculovirus, pFastBac 1)
T1 sequence (P52333 508-1124): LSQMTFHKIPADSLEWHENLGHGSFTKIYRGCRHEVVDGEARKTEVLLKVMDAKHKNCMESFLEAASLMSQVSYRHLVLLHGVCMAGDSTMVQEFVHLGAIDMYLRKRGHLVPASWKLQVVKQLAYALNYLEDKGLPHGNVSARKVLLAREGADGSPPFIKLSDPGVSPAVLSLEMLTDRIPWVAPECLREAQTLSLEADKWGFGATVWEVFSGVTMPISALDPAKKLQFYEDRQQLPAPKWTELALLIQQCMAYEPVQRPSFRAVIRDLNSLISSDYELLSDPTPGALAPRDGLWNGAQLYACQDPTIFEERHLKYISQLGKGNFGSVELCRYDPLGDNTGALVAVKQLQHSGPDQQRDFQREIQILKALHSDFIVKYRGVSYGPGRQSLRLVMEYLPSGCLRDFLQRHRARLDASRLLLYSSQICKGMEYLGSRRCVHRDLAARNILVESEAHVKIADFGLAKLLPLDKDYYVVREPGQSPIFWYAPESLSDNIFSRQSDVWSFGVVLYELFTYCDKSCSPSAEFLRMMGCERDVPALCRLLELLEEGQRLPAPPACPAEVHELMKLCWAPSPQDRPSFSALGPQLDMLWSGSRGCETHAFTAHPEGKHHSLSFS
Assay: Jak3 Kinase Assay (HTRF)
Type: biochemical
Conditions: GST-Jak3 catalytic domain, 1 μM ATP, 60-min incubation; read-out: Jak3 Kinase, IC50 representation
Protocol: Human Jak3 cDNA was amplified by PCR. A fragment encoding the catalytic domain of Jak3 (508aa to 1124aa) was ligated with GST at 5′ end. This fused GST-Jak3 DNA fragment was cloned into the EcoRI site of the donor plasmid pFastBac 1 (Life Technologies #10359-016). The transformation, transposition, and transfection of insect cells (Sf9) were performed according to the manufacture's instructions. The cell lysate containing recombinant GST-Jak3 was used in the kinase assay. Anti-GST antibody (10 μg/ml, Sigma #G1417) was coated onto a 384-well plate at 4° C. overnight. Cell lysate containing GST-Jak3 (1:100 dilution) was added to the anti-GST coated plates, and GST-Jak3 was captured by immobilized anti-GST antibody. Testing compounds and substrate mix (50 mM HEPES, pH 7, 0.5 mM Na3VO4, 25 mM MgCl2, 1 mM DTT, 0.005% BSA, 1 μM ATP, and 4.5 μg/ml biotinyl poly-Glu,Ala,Tyr) were added to the plate to initiate the reaction. After a 60-min incubation, the reaction was stopped by 4 mM EDTA, and phosphorylation of biotinyl poly-Glu,Ala,Tyr was detected using 17 μg/ml Cy5-streptavidin (Amersham, #PA92005) and 2.7 μg/ml Europium-conjugated anti-phosphotyrosine antibody (PerkinElmer #AD0069) using homogeneous time-resolved fluorescence (HTRF) technology.

CC(C)(C)OC(=O)N1CC(Nc2nc(-n3cnc4ccc(F)cc43)nc3c2[nH]c(=O)n3C2CCOCC2)C1 and CC(C)(C)OC(=O)N1CC(CNc2nc(-n3cnc4ccc(F)cc43)nc3c2[nH]c(=O)n3C2CCOCC2)C1 cannot be ordered by IC50: < 100 nM for the first, < 100 nM for the second.

O=c1[nH]c2c(OC3CCC3)nc(-n3cnc4ccc(F)cc43)nc2n1C1CCOCC1 and O=c1[nH]c2c(NC3CCC3)nc(-n3cnc4ccc(F)cc43)nc2n1C1CCOCC1 cannot be ordered by IC50: < 100 nM for the first, < 100 nM for the second.

O=c1[nH]c2c(N3CC(F)(F)C3)nc(-n3cnc4ccc(F)cc43)nc2n1C1CCOCC1 and O=c1[nH]c2c(N3CCCC(F)(F)C3)nc(-n3cnc4ccc(F)cc43)nc2n1C1CCOCC1 cannot be ordered by IC50: < 100 nM for the first, < 100 nM for the second.

O=c1[nH]c2c(N3CCC(O)C3)nc(-n3cnc4ccc(F)cc43)nc2n1C1CCOCC1 (stereo not shown) and O=c1[nH]c2c(N3CC[C@@H](F)C3)nc(-n3cnc4ccc(F)cc43)nc2n1C1CCOCC1 cannot be ordered by IC50: < 100 nM for the first, < 100 nM for the second.

CN1CCCN(c2nc(-n3cnc4ccc(Cl)cc43)nc3c2[nH]c(=O)n3C2CCOCC2)CC1 and CN1CCCN(c2nc(-n3cnc4ccc(F)cc43)nc3c2[nH]c(=O)n3C2CCOCC2)CC1 cannot be ordered by IC50: < 100 nM for the first, < 100 nM for the second.

N#Cc1ccc(-c2nc(-n3cnc4ccc(F)cc43)nc3c2[nH]c(=O)n3[C@@H]2CCOc3c(F)cccc32)cc1 and O=c1[nH]c2c(Cc3ccccc3)nc(-n3cnc4ccc(F)cc43)nc2n1[C@@H]1CCOc2c(F)cccc21 fall in the same range of IC50: 100 to 1000 nM for the first, 100 to 1000 nM for the second.

First: O=c1[nH]c2c(N3CC(O)C3)nc(-n3cnc4ccc(F)cc43)nc2n1[C@@H]1CCOc2c(F)cccc21
Second: O=c1[nH]c2c(NCC3CC3)nc(-n3cnc4ccc(F)cc43)nc2n1[C@@H]1CCOc2c(F)cccc21
The IC50 of the first is lower: < 100 nM for the first, 100 to 1000 nM for the second. The first is the more potent here.

Cn1c(=O)n([C@H]2CC[C@H](O)CC2)c2nc(-n3cnc4ccc(F)cc43)nc(N3CCCCC3)c21 and Cn1c(=O)n([C@H]2CC[C@H](O)CC2)c2nc(-n3cnc4ccc(F)cc43)nc(N3CCC3)c21 cannot be ordered by IC50: < 100 nM for the first, < 100 nM for the second.

N#Cc1ccc2ncn(-c3nc(N4CCC4)c4[nH]c(=O)n(C5CCOCC5)c4n3)c2c1 and N#Cc1ccc2ncn(-c3nc(N4CCOCC4)c4[nH]c(=O)n(C5CCOCC5)c4n3)c2c1 cannot be ordered by IC50: < 100 nM for the first, < 100 nM for the second.

O=c1[nH]c2c(N3CC(O)C3)nc(-n3cnc4ccc(Cl)cc43)nc2n1C1CCOCC1 and O=c1[nH]c2c(N3CCC3)nc(-n3cnc4ccc(Cl)cc43)nc2n1C1CCOCC1 cannot be ordered by IC50: < 100 nM for the first, < 100 nM for the second.

CC(C)Cc1nc(-n2cnc3ccc(F)cc32)nc2c1[nH]c(=O)n2[C@@H]1CCOc2c(F)cccc21 and CC(C)CNc1nc(-n2cnc3ccc(F)cc32)nc2c1[nH]c(=O)n2[C@@H]1CCOc2c(F)cccc21 fall in the same range of IC50: 100 to 1000 nM for the first, 100 to 1000 nM for the second.

O=c1[nH]c2c(N3CCCCC3)nc(-n3cnc4ccc(F)cc43)nc2n1C1CCOCC1 and O=c1[nH]c2c(N3CCC(F)CC3)nc(-n3cnc4ccc(F)cc43)nc2n1C1CCOCC1 cannot be ordered by IC50: < 100 nM for the first, < 100 nM for the second.

O=c1[nH]c2c(CO)nc(-n3cnc4ccc(F)cc43)nc2n1C1CCOc2ccccc21 (stereo not shown) and N#CCCCc1nc(-n2cnc3ccc(F)cc32)nc2c1[nH]c(=O)n2[C@@H]1CCOc2c(F)cccc21 cannot be ordered by IC50: < 100 nM for the first, < 100 nM for the second.

O=c1[nH]c2c(-c3ccc(F)nc3)nc(-n3cnc4ccc(F)cc43)nc2n1C1CCOCC1 and O=c1[nH]c2c(-c3cccnc3)nc(-n3cnc4ccc(F)cc43)nc2n1C1CCOCC1 cannot be ordered by IC50: < 100 nM for the first, < 100 nM for the second.

First: O=c1[nH]c2c(-c3ccncc3)nc(-n3cnc4ccc(F)cc43)nc2n1C1CCOCC1
Second: O=c1[nH]c2c(-c3ccncc3)nc(-n3cnc4ccc(OC(F)(F)F)cc43)nc2n1C1CCOCC1
The IC50 of the first is lower: < 100 nM for the first, 100 to 1000 nM for the second. The first is the more potent here.

Cn1c(=O)n([C@H]2CC[C@H](O)CC2)c2nc(-n3cnc4ccc(F)cc43)nc(N3CCC(F)CC3)c21 and Cn1c(=O)n([C@H]2CC[C@H](O)CC2)c2nc(-n3cnc4ccc(F)cc43)nc(N3CC[C@@H](F)C3)c21 cannot be ordered by IC50: < 100 nM for the first, < 100 nM for the second.

O=c1[nH]c2c(NCCCO)nc(-n3cnc4ccc(Cl)cc43)nc2n1C1CCOCC1 and COCCCNc1nc(-n2cnc3ccc(Cl)cc32)nc2c1[nH]c(=O)n2C1CCOCC1 cannot be ordered by IC50: < 100 nM for the first, < 100 nM for the second.

N#Cc1ccc2ncn(-c3nc(N4CC(F)(F)C4)c4[nH]c(=O)n(C5CCOCC5)c4n3)c2c1 and N#Cc1ccc2ncn(-c3nc(N4CC(F)(F)C4)c4[nH]c(=O)n([C@H]5CC[C@H](O)CC5)c4n3)c2c1 cannot be ordered by IC50: < 100 nM for the first, < 100 nM for the second.

First: N#CCNC(=O)c1nc(-n2cnc3ccc(F)cc32)nc2c1[nH]c(=O)n2C1CCOCC1
Second: CCOC(=O)c1nc(-n2cnc3ccc(F)cc32)nc2c1[nH]c(=O)n2C1CCOCC1
The IC50 of the first is lower: < 100 nM for the first, 100 to 1000 nM for the second.

First: N#Cc1ccc(-c2nc(-n3cnc4ccc(F)cc43)nc3c2[nH]c(=O)n3C2CCOCC2)cc1
Second: O=c1[nH]c2c(-c3cccc(Cl)c3)nc(-n3cnc4ccc(F)cc43)nc2n1C1CCOCC1
The IC50 of the first is lower: < 100 nM for the first, 100 to 1000 nM for the second. The first is the more potent here.

CC(C)(C)OC(=O)NCCCNc1nc(-n2cnc3ccc(C#N)cc32)nc2c1[nH]c(=O)n2C1CCOCC1 and N#Cc1ccc2ncn(-c3nc(NC4CCC4)c4[nH]c(=O)n(C5CCOCC5)c4n3)c2c1 cannot be ordered by IC50: < 100 nM for the first, < 100 nM for the second.

O=c1[nH]c2c(NCC3CNC3)nc(-n3cnc4ccc(F)cc43)nc2n1C1CCOCC1 and O=c1[nH]c2c(NC3CNC3)nc(-n3cnc4ccc(F)cc43)nc2n1C1CCOCC1 cannot be ordered by IC50: < 100 nM for the first, < 100 nM for the second.

Cn1c(=O)n([C@H]2CC[C@H](O)CC2)c2nc(-n3cnc4ccc(F)cc43)nc(N3CCC(F)(F)CC3)c21 and Cn1c(=O)n([C@H]2CC[C@H](O)CC2)c2nc(-n3cnc4ccc(Cl)cc43)nc(N3CC(F)(F)C3)c21 cannot be ordered by IC50: < 100 nM for the first, < 100 nM for the second.

Cn1c(=O)n([C@H]2CC[C@H](O)CC2)c2nc(-n3cnc4ccc(Cl)cc43)nc(N3CC[C@H](F)C3)c21 and O=c1[nH]c2c(N3CC[C@H](F)C3)nc(-n3cnc4ccc(F)cc43)nc2n1C1CCOCC1 cannot be ordered by IC50: < 100 nM for the first, < 100 nM for the second.

First: O=c1[nH]c2c(Oc3cccnc3)nc(-n3cnc4ccc(F)cc43)nc2n1C1CCOCC1
Second: O=c1[nH]c2c(-c3cccc4cnccc34)nc(-n3cnc4ccc(F)cc43)nc2n1C1CCOCC1
The IC50 of the first is lower: < 100 nM for the first, 100 to 1000 nM for the second.

Compared with C[C@@H](Nc1nc(-n2cnc3ccc(F)cc32)nc2c1[nH]c(=O)n2C1CCOCC1)c1ccccc1, O=c1[nH]c2c(NCc3ccccc3)nc(-n3cnc4ccc(F)cc43)nc2n1C1CCOCC1 is lower in IC50: > 1000 nM for the first, 100 to 1000 nM for the second. The second is the more potent here.

CN1CCC(Nc2nc(-n3cnc4ccc(C#N)cc43)nc3c2[nH]c(=O)n3C2CCOCC2)CC1 and N#Cc1ccc2ncn(-c3nc(NC4CCCC4)c4[nH]c(=O)n(C5CCOCC5)c4n3)c2c1 cannot be ordered by IC50: < 100 nM for the first, < 100 nM for the second.

NC(=O)C1CCN(c2nc(-n3cnc4ccc(F)cc43)nc3c2[nH]c(=O)n3C2CCOCC2)CC1 and NC(=O)C1CCN(c2nc(-n3cnc4ccc(Cl)cc43)nc3c2[nH]c(=O)n3C2CCOCC2)CC1 cannot be ordered by IC50: < 100 nM for the first, < 100 nM for the second.

N#Cc1ccc2ncn(-c3nc(N4CCS(=O)(=O)CC4)c4[nH]c(=O)n(C5CCOCC5)c4n3)c2c1 and N#Cc1ccc2ncn(-c3nc(N4CCCC(O)CC4)c4[nH]c(=O)n(C5CCOCC5)c4n3)c2c1 (stereo not shown) cannot be ordered by IC50: < 100 nM for the first, < 100 nM for the second.

CO[C@H]1CC[C@H](n2c(=O)[nH]c3c(N4CC(F)(F)C4)nc(-n4cnc5ccc(C#N)cc54)nc32)CC1 and N#Cc1ccc2ncn(-c3nc(N4CC(F)(F)C4)c4[nH]c(=O)n(CC5CCOC5)c4n3)c2c1 (stereo not shown) cannot be ordered by IC50: < 100 nM for the first, < 100 nM for the second.

First: O=c1[nH]c2c(-c3ccccc3)nc(-n3cnc4ccccc43)nc2n1[C@@H]1CCOc2ccc(F)cc21
Second: O=c1[nH]c2c(-c3ccccc3Cl)nc(-n3cnc4ccc(F)cc43)nc2n1C1CCOCC1
The IC50 of the first is lower: 100 to 1000 nM for the first, > 1000 nM for the second.

N#Cc1ccc2ncn(-c3nc(N4CC(F)(F)C4)c4[nH]c(=O)n(Cc5cccnc5)c4n3)c2c1 and Cn1c(=O)n([C@H]2CC[C@H](O)CC2)c2nc(-n3cnc4ccc(C#N)cc43)nc(-c3ccncc3)c21 cannot be ordered by IC50: < 100 nM for the first, < 100 nM for the second.

O=c1[nH]c2c(N3CCC(F)(F)CC3)nc(-n3cnc4ccc(F)cc43)nc2n1C1CCOCC1 and O=c1[nH]c2c(N3CC(F)(F)C(F)(F)C3)nc(-n3cnc4ccc(F)cc43)nc2n1C1CCOCC1 cannot be ordered by IC50: < 100 nM for the first, < 100 nM for the second.

For Cn1c(=O)n(C2CCOCC2)c2nc(-n3cnc4ccc(Cl)cc43)nc(NCC(F)(F)CCl)c21, the IC50 was < 100 nM.
